Series [1] is described as follows: In vitro cytotoxicity (CCK-8) in HepAD38 cells. In kind it is cell-based. Particulars: human. The method in brief:
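HepG2.2.15 or HepAD38 cells plated at 2*10^5 cells/mL on collagen I-coated wells, grown 24 h, then exposed to compound for 6 days with medium refreshed every 3 days; 0.5% DMSO vehicle control. CCK-8 absorbance read at 450 nm after 1–2 h; inhibition rate and CC50 calculated.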

Series [2] is described as follows: Plasma protein binding assay (equilibrium dialysis), rat plasma. The series is classed as in vitro ADME. Here is the method: (§1) Formulation of plasma sample: 495 μL of blank plasmas of the corresponding species (mouse, rat, dog, monkey, and human) were drawn respectively, and thereto was added 5 μL of the corresponding test compound solution or positive control to give plasma sample solutions having a plasma drug concentration of the compound of 1 μM, and 10 μM, respectively (formulated with acetonitrile).
(§2) The pre-treated dialysis membrane was placed in a high-throughput equilibrium dialysis device, and 100 μL of the plasma sample solution and PBS buffer solution were drawn and added respectively to both sides of the dialysis membrane (sample side and buffer side) (n=3). After the equilibration device was sealed with a film, it was incubated at 37° C. overnight (100 rpm). After dialysis equilibrium was reached, 50 μL samples were drawn from the sample side and the buffer side, respectively, and the reaction was terminated by adding ice acetonitrile containing an internal standard.
(§3) Sample pre-treatment: To 50 μL of the plasma-side sample was added 450 μL of ice acetonitrile containing an internal standard, and then precipitated. After vortexing for 5 minutes, the sample was centrifugated (12000 rpm, 4° C.) for 10 minutes. 75 μL of the supernatant was pipetted, and 75 μL of ultrapure water was added thereto for dilution and mixed uniformly. 1 μL of the resulting solution was injected for analysis. To 50 μL of the PBS-side sample was added 250 μL of ice acetonitrile with an internal standard, and precipitated. After vortexing for 5 min, the sample was centrifugated (12000 rpm, 4° C.) for 10 min. 75 μL of the supernatant was pipetted, and 75 μL of ultrapure water was added thereto for dilution and mixed uniformly. 2 μL of the resulting solution was injected for analysis.

Series [3] is described as follows: Plasma protein binding assay (equilibrium dialysis), dog plasma. In kind it is in vitro ADME. As for the experimental part:
as §1, §2, §3

Series [4] is described as follows: Stability of human liver microsomes in vitro. In kind it is in vitro ADME. Here is the method: 300 μL of a final incubation system contains 30 μL of liver microsomes (protein concentration: 0.15 mg/mL), 30 μL NADPH+MgCl2, 3 μL substrate (formulated with acetonitrile), and 237 μL PBS buffer. Duplicate incubation systems of 0.3 mL each were formulated for each species. A total volume of 270 μL of a uniformly mixed solution of the substrate and the enzyme was formulated in each tube, the solution and NADPH were pre-incubated at 37° C. for 5 minutes, respectively. Then 30 μL of the mixed solution of NADPH+MgCl2 was added for reaction. 50 μL of the reaction solution was taken out at 0, 10, 30, and 60 mins, and the reaction was terminated with 300 μL of ice acetonitrile containing an internal standard.
Sample pre-treatment: To 50 μL of the incubated sample was added 300 μL of ice acetonitrile containing diazepam as an internal standard and then precipitated. After vortexing for 5 minutes, the sample was centrifugated (12000 rpm, 4° C.) for 10 minutes. 75 μL of the supernatant was pipetted into a 96-well plate, and then diluted with 75 μL ultrapure water and mixed uniformly. 0.5 μL of the resulting solution was injected and analyzed by LC-MS/MS.

Series [5] is described as follows: Solubility in PBS buffer at pH 7.4. In kind it is physicochemical. Particulars: aqueous buffer, PBS buffer pH 7.4, 25° C. As for the experimental part:
[…] After standing at 25° C. for 16 hours, the system was centrifugated (12000 rpm, room temperature) for 10 min. 20 μL of the supernatant was taken out, and the reaction was terminated with 400 μL of acetonitrile containing an internal standard (diazepam 20 ng/mL). 30 μL of the supernatant was pipetted, and 150 μL of 50% acetonitrile aqueous solution was added thereto for dilution and mixed uniformly. 0.5 μL of the resulting solution was injected for analysis.

The nature of series [6]: In vivo pharmacokinetic (PK) study in Beagle dog. More on the design: species or system Beagle dogs. Here is the method:
Beagle dogs, weighing 9 to 11 kg, were randomly divided into two groups of 3 dogs each, compound 12 was given by intragastric administration to each group at a dose of 5 mg/kg.
The test animals (Beagle dogs) were fasted for 12 hours before the administration, and fed 4 hours after the administration. They were free to access water before and after the experiment.
After the intragastric administration, about 0.5 mL of whole blood was collected from the veins of the left forelimb in an EDTA-K2 anticoagulated vacuum blood collection tube at 0 min, 15 min, 30 min, 1 h, 2 h, 4 h, 6 h, 8 h, 10 h, 24 h, 48 h, and 72 h. Within 30 minutes after collection, the plasma was separated by centrifugation at 4° C. and 4000 rpm for 10 minutes. Immediately after collecting all plasma, it was stored at −20° C. for testing.
50 μL of the plasma sample to be tested and standard curve sample were pipetted, and then thereto was added 500 μL of an acetonitrile solution containing an internal standard (diazepam 20 mg/mL). The resulting mixture was oscillated and mixed uniformly for 5 min, and then centrifugated at 12000 rpm for 10 min, 75 μL of the supernatant was pipetted, and 75 μL of ultrapure water was added for dilution and mixed evenly. 1 μL of the resulting solution was pipetted for LC/MS/MS determination.

Series [7] can be described thus: In vivo pharmacokinetics (PK) study in rats. Also noted: species or system SD rats. Particulars: rat.
The mark [8] stands for this setting: plasma, Beagle dogs, PO 5 mg/kg.

Converted amounts (≈) assume the structure as drawn.

The values that follow come from patent publication US12116356B2, “N-heterocyclic five-membered ring-containing capsid protein assembly inhibitor, pharmaceutical composition thereof, and use thereof” (CHIA TAI TIANQING PHARMACEUTICAL GROUP CO., LTD., priority 2018, dated 2024).

As to `Cc1c(C(=O)Nc2ccc(F)c(C#N)c2)c(C)n(C)c1C(=O)C(=O)N[C@@H](C)C(F)(F)F` [Example 12], in series [1], the cytotoxic concentration (CC50) at 6 days was > 100 µM. The Binding rate in series [2] (1 μM) was 82.0%; in series [2] (10 μM), 79.2%; in series [3] (1 μM), 85.9%; in series [3] (10 μM), 85.9%. The “Remaining (%) at 60 min” value in series [4] is reported as 78.8%. In series [5], the concentration in solution (solubility at 16 h) was 8.1 µM (≈ 3.55 µg/mL). Also, the half-life in series [6] (Beagle, in vivo, po, 5 mg/kg) was 4.38 days; in series [7] (SD, in vivo, iv, 5 mg/kg), 205 min. Besides, the area under the curve AUC(0-inf) in series [6] (setting [8]) is 162 µg·h/mL; in series [7] (plasma, SD rats, IV 5 mg/kg), 27100 ng·h/mL. Moreover, the Cmax in series [6] (setting [8]) stood at 1280 ng/mL; in series [7] (plasma, SD rats, IV 5 mg/kg) it was 6270 ng/mL. The Tmax in series [6] (setting [8]) was 1.67 h. Moreover, the AUC(0-t) in series [6] (plasma, Beagle dogs, PO 5 mg/kg, read-out: AUC(0-72 h)) amounted to 61900 ng·h/mL; in series [7] (plasma, SD rats, IV 5 mg/kg, read-out: AUC(0-48 h)), 27100 ng·h/mL. For the same compound, the MRT last in series [6] (plasma, Beagle dogs, PO 5 mg/kg, read-out: MRT(0-t)) is 32.9 h. The clearance in series [7] (plasma, SD rats, IV 5 mg/kg) is 3.1 mL/min/kg. Besides, the Vd in series [7] (plasma, SD rats, IV 5 mg/kg, read-out: Vz) was 0.914 L/kg.

As for `Cc1c(C(=O)Nc2ccc(F)c(C#N)c2)c(C)n(C)c1C(=O)C(=O)NC1(C(F)(F)F)COC1` [Example 25, N-(3-cyano-4-fluorophenyl)-1,2,4-trimethyl-5-(2-oxo-2-((3-(trifluoromethyl)oxetan-3-yl)amino)acetyl)-1H-pyrrole-3-carboxamide], in series [1], the half-maximal cytotoxic concentration (CC50) at 6 days is > 100 µM. The Binding rate in series [2] (1 μM) stood at 79.5%; in series [2] (10 μM), 77.0%; in series [3] (1 μM), 87.0%; in series [3] (10 μM) it was 86.8%.
